Results taken from patent publication US20070254303A1, “Methods for assessing the efficacy of treatment with a glucocorticoid” (Praecis Pharmaceuticals Incorporated, priority 2006, published 2007).

Experiments:
[1] = target: T1, MetAP-2 in white blood cells (Rattus norvegicus, UniProt P38062); experiment: MetAP-2 pharmacodynamic assay (ELISA of uninhibited MetAP-2 in white blood cell lysates of treated rats); format: in vivo; details: po, PG-PS arthritic rats, every other day, relative to the vehicle-treated group, read-out: MetAP-2 in white blood cells inhibited; for inhibition at 1 mg/kg: 1 mg/kg orally, pooled wbc after conclusion of study
T1 construct: white blood cells from animals of each study group were pooled and cell lysates were prepared; from tissue; host or cells: white blood cells of female Lewis rats (PG-PS arthritis model)
Method: After completion of the study, wbc from rats of different groups that had been treated with vehicle (p.o., qod), dex (1 mg/kg, p.o., qod) or MetAP-2 inhibitor (1, 5, or 10 mg/kg, p.o., qod) were pooled, lysed, and the amount of MetAP-2 inhibited in wbc lysates was determined by the MetAP-2 pharmacodynamic assay. All values are expressed as percentage of the amount of MetAP-2 inhibited compared with vehicle-treated rats. The amount of uninhibited MetAP-2 (=100%) in vehicle-treated rats in this assay corresponded to 41 ng MetAP-2 per mg wbc protein. The detection limit was 0.47 ng MetAP-2 per mg wbc protein. Columns: 10 rats per group, except for naive rats treated with vehicle (n=4).
(§1) Rat model of Peptidoglycan-Polysaccharide (PG-PS) induced arthritis. Female Lewis rats (109-130 g) were received from Charles River Laboratories. Food and water were available ad libitum. PG-PS (25 mg/kg) was injected intraperitoneally on day 1 and responding animals were randomized into treatment groups on day 14. Vehicle (11% HPCD in PBS), dexamethasone and a methionine aminopeptidase 2 inhibitor (1, 5, and 10 mg/kg) were administered orally, every other day. Paw swelling was monitored using a plethysmometer (Stoelting Co., Woodale, Ill.) according to instrument specifications. The volumes of the two hind paws were measured and averaged on day 1, 4, 6, 8, 10, 13, 15, 17, 20, 22, 23, 27, 29 and 31. Ten animals were assigned to each group except the vehicle group and animals which received no PG-PS, but 10 mg/kg of the methionine aminopeptidase 2 inhibitor (n=4). The methionine aminopeptidase 2 inhibitor comprising the structure structure (1-Carbamoyl-2-methyl-propyl)-carbamic acid-(3R, 4S, 5S, 6R )-5-methoxy-4-[(2R, 3R)-2-methyl-3-(3-methyl-but-2-enyl)-oxiranyl]-1-oxa-spiro[2.5]oct-6-yl ester was used in the present studies.
MetAP-2 pharmacodynamic assay. The MetAP-2 assay is an ELISA assay that measures the amount of uninhibited MetAP-2 in cells or tissues which has not been derivitized by prior treatment with a methionine aminopeptidase 2 inhibitor and/or a glucocorticoid. The assay was performed as described in, for example, Bernier, S. G., et al. (2004) Proc. Natl. Acad. Sci. USA 101: 10768-10773 and Bernier, S. G., et al. (2005) J. Cell. Biochem. 95:1191-1203, the entire contents of each of which are incorporated herein by reference. Briefly, white blood cells from animals of each study group were pooled and cell lysates were prepared as described in, for example, Bernier, S. G., et al. (2004) Proc. Natl. Acad. Sci. USA 101: 10768-10773 and Bernier, S. G., et al. (2005) J. Cell. Biochem. 95:1191-1203. […] After 1 hour, the plates were washed, and the immobilized biotinylated MetAP-2-inhibitor complex was then detected with an anti-MetAP-2 antibody, CM33 (0.5 μg/ml). […]

[2] = test system: Peptidoglycan-Polysaccharide (PG-PS) induced arthritis; experiment: Rat model of PG-PS induced arthritis, paw swelling of the hind limbs; format: in vivo; details: 1, 5 and 10 mg/kg orally, every other day, day 15 to day 31; compared to vehicle-treated animals
Method: as §1

T1 sequence (P38062 whole entry): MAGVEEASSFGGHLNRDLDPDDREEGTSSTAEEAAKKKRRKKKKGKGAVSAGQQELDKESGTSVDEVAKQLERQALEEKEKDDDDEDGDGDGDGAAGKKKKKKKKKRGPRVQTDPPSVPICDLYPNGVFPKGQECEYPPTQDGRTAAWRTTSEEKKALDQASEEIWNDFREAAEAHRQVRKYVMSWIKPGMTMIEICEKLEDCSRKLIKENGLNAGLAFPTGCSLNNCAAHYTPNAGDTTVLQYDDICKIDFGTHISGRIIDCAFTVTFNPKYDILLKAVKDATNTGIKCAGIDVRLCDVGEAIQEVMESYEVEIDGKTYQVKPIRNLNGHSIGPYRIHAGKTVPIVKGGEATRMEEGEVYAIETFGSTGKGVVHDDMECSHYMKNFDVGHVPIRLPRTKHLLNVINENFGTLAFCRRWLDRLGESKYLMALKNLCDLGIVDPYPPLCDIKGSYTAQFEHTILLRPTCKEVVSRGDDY

Compound | inhibition at 1 mg/kg [1] | joint swelling and inflammation, measured by paw swelling of the hind limbs [2] | inhibition at 5 mg/kg ([1]; 5 mg/kg orally) | inhibition at 10 mg/kg ([1]; 10 mg/kg orally)
C[C@@H]1C[C@H]2[C@@H]3CCC4=CC(=O)C=C[C@]4(C)[C@@]3(F)[C@@H](O)C[C@]2(C)[C@@]1(O)C(=O)CO [dexamethasone, reference compound] | ≥ 90% |  |  | 
CO[C@@H]1[C@H](OC(=O)N[C@@H](C(N)=O)C(C)C)CC[C@]2(CO2)[C@H]1[C@@]1(C)O[C@@H]1CC=C(C)C [methionine aminopeptidase 2 inhibitor, (1-Carbamoyl-2-methyl-propyl)-carbamic acid-(3R, 4S, 5S, 6R )-5-methoxy-4-[(2R, 3R)-2-methyl-3-(3-methyl-but-2-enyl)-oxiranyl]-1-oxa-spiro[2.5]oct-6-yl ester] | ≥ 60% | significant amelioration of joint swelling and inflammation | ≥ 95% | ≥ 95%
